Laboratory results as given in article PMC3315146 (The Journal of General Physiology, 2012).
Changes are numbered by the printed parent chain.

Columns and labels:
[1] = target: T1, wt-Kcv (Paramecium bursaria Chlorella virus 1, UniProt Q84568); experiment: MTSET control, single-channel conductance of wt-Kcv; format: biochemical, chlorella virus PBCV-1; conditions: 0.2 mM cis MTSET
T1 sequence (Q84568 1-94): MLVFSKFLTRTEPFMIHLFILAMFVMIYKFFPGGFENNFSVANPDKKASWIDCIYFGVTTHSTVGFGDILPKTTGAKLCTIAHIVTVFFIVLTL

[2] = tested on: KcsA Y82C; conditions: reverse direction unchanged, ref Heginbotham et al., 1999; cited from earlier work
[3] = target: T2, Kcv L70C (Paramecium bursaria Chlorella virus 1, UniProt Q84568, L70C); experiment: MTSET cysteine modification, single-channel conductance of L70C; format: biochemical, chlorella virus PBCV-1; conditions: for conductance reduced by: L70C, 0.2 mM cis MTSET for 5 min
T2 sequence (Q84568 1-94 L70C): T1 sequence (Q84568 1-94) with L70C

For C[N+](C)(C)CCSS(C)(=O)=O [MTSET, (2-(trimethylammonium)ethyl) methanethiosulfonate], the conductance change [1] is given as “did not observe the conductance change”, the “reduction of cis to trans current” value [2] is given as 60% and the “conductance reduced by” value ([3]; 60 mV) is given as 30%. For the same compound, the “conductance reduced by” value ([3]; −60 mV) was 78% and the effect on conductance ([3]; MTSET added in the trans solution (not depicted)) was “not found to reduce the conductance”.
